Tests used:
[1] = biological target: T1, Proto-oncogene tyrosine-protein kinase Src (Homo sapiens, UniProt P12931); experiment: Inhibitory activity against non-receptor tyrosine kinase Src in enzyme assay
[2] = biological target: Serine/threonine-protein kinase AKT (Homo sapiens, UniProt P31751+Q9Y243+P31749); experiment: Inhibitory activity against AKT; type: functional
[3] = biological target: Inhibitor of NF-kappa-B kinase (IKK) (Homo sapiens, UniProt O14920+O15111+Q9Y6K9); experiment: Inhibitory activity against IKK; type: functional
[4] = biological target: Cyclin-dependent kinase 4 (Homo sapiens, UniProt P11802); experiment: Inhibitory activity against CDK4; type: functional
[5] = biological target: T2, 3-phosphoinositide-dependent protein kinase 1 (Homo sapiens, UniProt O15530); experiment: Inhibitory activity against PDK1; type: functional
T2 sequence (O15530 whole entry): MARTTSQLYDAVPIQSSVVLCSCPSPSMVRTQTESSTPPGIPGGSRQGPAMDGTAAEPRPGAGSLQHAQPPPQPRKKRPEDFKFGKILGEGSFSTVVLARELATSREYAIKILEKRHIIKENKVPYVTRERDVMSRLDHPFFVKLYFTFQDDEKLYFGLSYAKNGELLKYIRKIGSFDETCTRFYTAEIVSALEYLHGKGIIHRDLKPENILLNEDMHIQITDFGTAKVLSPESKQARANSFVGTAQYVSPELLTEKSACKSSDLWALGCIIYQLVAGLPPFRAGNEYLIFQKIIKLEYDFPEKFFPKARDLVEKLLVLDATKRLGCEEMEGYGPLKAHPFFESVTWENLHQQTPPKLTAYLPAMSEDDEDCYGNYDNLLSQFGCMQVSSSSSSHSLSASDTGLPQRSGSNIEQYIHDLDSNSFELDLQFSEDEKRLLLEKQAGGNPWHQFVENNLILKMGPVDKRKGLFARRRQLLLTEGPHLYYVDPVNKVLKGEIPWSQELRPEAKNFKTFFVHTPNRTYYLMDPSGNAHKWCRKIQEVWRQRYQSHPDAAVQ

[6] = biological target: Serine/threonine-protein kinase RAF and Dual specificity mitogen-activated protein kinase kinase 1 (Raf/MEK) (Homo sapiens, UniProt P04049+Q02750); experiment: Inhibitory activity against Raf/MEK; type: functional
[7] = biological target: T1, Proto-oncogene tyrosine-protein kinase Src; experiment: Inhibitory activity against non-receptor tyrosine kinase Src in cell assay; type: functional

T1 sequence (P12931 2-536 limits assumed): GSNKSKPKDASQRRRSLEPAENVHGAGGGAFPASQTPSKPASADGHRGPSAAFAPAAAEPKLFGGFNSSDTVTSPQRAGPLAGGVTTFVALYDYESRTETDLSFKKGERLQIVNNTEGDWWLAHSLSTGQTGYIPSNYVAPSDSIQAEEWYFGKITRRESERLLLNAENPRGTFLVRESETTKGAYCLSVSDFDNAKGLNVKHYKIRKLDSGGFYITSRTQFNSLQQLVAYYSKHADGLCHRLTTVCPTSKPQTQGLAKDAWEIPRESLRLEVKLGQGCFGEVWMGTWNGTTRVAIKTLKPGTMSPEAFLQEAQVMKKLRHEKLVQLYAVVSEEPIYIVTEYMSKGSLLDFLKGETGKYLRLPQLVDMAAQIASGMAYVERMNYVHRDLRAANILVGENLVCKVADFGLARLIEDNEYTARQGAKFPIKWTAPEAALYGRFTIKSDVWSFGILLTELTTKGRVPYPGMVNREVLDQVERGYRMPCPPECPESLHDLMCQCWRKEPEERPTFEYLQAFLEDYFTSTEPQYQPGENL
Inhibitor of NF-kappa-B kinase (IKK), sequence (O14920 whole entry): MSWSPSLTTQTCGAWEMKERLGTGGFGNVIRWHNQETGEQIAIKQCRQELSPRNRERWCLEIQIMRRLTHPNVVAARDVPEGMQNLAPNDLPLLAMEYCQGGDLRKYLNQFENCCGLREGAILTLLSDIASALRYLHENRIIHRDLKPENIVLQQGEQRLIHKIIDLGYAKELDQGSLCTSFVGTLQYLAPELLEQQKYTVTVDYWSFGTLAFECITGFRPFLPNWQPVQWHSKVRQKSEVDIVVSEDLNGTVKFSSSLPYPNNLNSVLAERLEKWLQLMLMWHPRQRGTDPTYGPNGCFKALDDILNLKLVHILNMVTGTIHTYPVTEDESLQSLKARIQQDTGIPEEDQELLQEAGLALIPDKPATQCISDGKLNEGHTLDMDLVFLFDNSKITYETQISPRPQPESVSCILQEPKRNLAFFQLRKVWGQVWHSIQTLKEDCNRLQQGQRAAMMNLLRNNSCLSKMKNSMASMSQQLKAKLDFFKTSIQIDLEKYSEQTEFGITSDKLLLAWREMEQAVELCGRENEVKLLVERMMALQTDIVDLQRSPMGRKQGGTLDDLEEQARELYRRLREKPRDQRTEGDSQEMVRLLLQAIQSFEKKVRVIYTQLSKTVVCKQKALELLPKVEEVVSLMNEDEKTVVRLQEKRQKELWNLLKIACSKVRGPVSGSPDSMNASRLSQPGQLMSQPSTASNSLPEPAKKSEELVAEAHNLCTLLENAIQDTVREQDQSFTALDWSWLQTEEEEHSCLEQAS
Inhibitor of NF-kappa-B kinase (IKK), sequence (O15111 whole entry): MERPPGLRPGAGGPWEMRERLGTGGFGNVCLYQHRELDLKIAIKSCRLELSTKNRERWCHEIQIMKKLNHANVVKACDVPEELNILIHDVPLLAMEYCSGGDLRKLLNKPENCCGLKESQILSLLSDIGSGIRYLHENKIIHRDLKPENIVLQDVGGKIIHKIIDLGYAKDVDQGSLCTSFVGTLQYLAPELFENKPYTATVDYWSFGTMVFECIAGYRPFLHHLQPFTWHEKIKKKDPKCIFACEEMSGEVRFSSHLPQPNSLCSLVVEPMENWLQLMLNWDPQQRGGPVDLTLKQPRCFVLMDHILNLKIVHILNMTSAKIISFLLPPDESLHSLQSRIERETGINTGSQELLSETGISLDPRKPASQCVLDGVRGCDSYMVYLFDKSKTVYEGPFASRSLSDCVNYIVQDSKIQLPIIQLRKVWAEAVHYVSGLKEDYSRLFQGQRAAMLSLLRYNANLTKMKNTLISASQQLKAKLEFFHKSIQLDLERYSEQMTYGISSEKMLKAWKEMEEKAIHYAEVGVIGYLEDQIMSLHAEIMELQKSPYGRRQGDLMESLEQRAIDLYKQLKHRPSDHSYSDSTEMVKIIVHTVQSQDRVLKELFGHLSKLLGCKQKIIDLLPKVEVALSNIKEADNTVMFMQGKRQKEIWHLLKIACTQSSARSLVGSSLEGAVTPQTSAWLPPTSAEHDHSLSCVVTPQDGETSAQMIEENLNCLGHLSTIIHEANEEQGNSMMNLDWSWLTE
Inhibitor of NF-kappa-B kinase (IKK), sequence (Q9Y6K9 whole entry): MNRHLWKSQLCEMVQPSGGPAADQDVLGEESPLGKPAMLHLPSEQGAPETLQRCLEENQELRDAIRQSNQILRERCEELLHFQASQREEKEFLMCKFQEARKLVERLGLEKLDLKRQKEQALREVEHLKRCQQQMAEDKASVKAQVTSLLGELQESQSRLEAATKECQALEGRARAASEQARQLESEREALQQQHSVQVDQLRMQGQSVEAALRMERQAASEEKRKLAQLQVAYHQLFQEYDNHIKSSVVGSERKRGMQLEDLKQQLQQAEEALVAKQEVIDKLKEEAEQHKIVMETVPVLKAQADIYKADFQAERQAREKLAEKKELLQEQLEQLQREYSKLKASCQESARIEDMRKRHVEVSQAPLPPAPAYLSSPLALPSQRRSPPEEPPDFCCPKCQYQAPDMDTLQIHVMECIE
Cyclin-dependent kinase 4, sequence (P11802 whole entry): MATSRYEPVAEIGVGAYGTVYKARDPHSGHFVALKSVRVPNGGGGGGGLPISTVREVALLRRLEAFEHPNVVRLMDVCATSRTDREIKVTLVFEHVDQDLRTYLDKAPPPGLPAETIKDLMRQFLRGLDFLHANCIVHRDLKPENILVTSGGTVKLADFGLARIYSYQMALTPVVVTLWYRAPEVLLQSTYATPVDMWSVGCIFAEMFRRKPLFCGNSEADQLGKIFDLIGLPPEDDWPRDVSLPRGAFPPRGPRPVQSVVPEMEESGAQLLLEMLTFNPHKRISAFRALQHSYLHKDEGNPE

IC50 [1]: 0.013 µM
IC50 [2]: > 10 µM
IC50 [3]: > 10 µM
IC50 [4]: > 10 µM
IC50 [5]: > 10 µM
IC50 [6]: 1.6 µM
IC50 [7]: 0.42 µM
Structure (SMILES): COc1cc(Nc2c(C#N)cnc3cc(-c4ccc(CN5CCN(C)CC5)cn4)sc23)c(Cl)cc1Cl

From ChEMBL document CHEMBL1140394, “Inhibition of Src kinase activity by 7-[(2,4-dichloro-5-methoxyphenyl)amino]-2-heteroaryl-thieno[3,2-b]pyridine-6-carbonitriles” (Bioorg Med Chem Lett, 2005)
